In patent US11623931B2, “Bicyclic compounds for diagnosis and therapy” (AC IMMUNE SA, priority 2016, dated 2023):

Key:
[1] = target: T1, aSyn aggregates on PD sections (Homo sapiens, UniProt P37840); assay: Assay 1 (fluorescence based assay): direct staining of human Parkinson's disease brain sections; type: binding; set-up: key: − (No); +/− (very weak); + (weak); ++ (good); +++ (strong); settings: staining intensity; compound 100 μM, frozen amygdala sections, PD Braak stage V-VI
T1 construct: 20 μm frozen sections from amygdala were purchased from an external provider (Tissue Solutions Ltd.); tissue Tissue Solutions Ltd; host or cells: human PD amygdala, frozen sections, Braak stage V-VI

[2] = test system: Aβ plaques on PD sections with mixed pathology; assay: Assay 1 (fluorescence based assay): direct staining of PD brain sections with mixed pathology; type: binding, human; set-up: key: − (No); +/− (very weak); + (weak); ++ (good); +++ (strong); settings: staining intensity; compound 100 μM, frozen amygdala sections, PD Braak stage V-VI with aSyn aggregates and Aβ plaques
Method: Direct Staining of Compounds of this Invention to Human Parkinson's Disease Brain Sections
20 μm frozen sections from amygdala were purchased from an external provider (Tissue Solutions Ltd.). Donors were diagnosed with PD, Braak stage V-VI (Braak et al., Neurobiol. Aging, 2003, 24, 197-211) and thus with confirmed aSyn pathology. PD donors, Braak stage V-VI with mixed pathology, containing aSyn aggregates as well as Aβ plaques, were also used in this assay. Sections were kept at −80° C. until start of the experiment.
Brain sections were encircled with pap pen liquid blocker to reduce the volume of solution for the different incubations. Sections were fixed for 15 min at 4° C. with 4% paraformaldehyde and washed three times for 5 minutes with PBS (phosphate buffered saline) at room temperature. Test compounds were incubated on the sections at 100 μM in 50% ethanol in water for 30 min at room temperature, followed by three washes of 5 minutes with PBS. Sections were then saturated and permeabilized in blocking buffer (PBS, 10% NGS, 0.25% Triton) for 1 hour at room temperature and then incubated for 2 hours at room temperature with the primary antibodies against aSyn: aSyn-211 (SantaCruz Biotechnology sc-12767) or aSyn-pS129 (Abcam AB51253), and primary antibody against AR, 4G8, (Covance, SIG-39220). All primary antibodies diluted 1/250 in PBS, 5% NGS, 0.25% Triton. After three washes in PBS, the sections were incubated for 30 minutes at room temperature with a secondary anti-mouse antibody labeled with AlexaFluor555 (Invitrogen A21422) or anti-rabbit antibody labeled with AlexaFluor555 (Invitrogen A21428) and further washed three times in PBS. To reduce auto-fluorescence of the tissue, the sections were incubated in a solution of 0.1% Sudan Black (Sigma 199664) in 70% ethanol for 15 min at room temperature, followed by four washes with PBS and mounted under cover slips using ProLong Gold Antifade reagent (Invitrogen P36930).
Sections were analyzed on the Nikon Eclipse Ti microscope to detect staining and imaged using Nikon DS-Fi2 camera and NIS-Element AR4.13.1 software.

SMILES | Staining of aSyn aggregates on PD sections [1] | Staining of Aβ plaques on PD sections with mixed pathology [2]
F[C@H]1CCN(c2ccc(-c3ccc4cc(-c5cccnc5)sc4n3)cn2)C1 [Example 112] | + | ++
Fc1ccc(-c2ccc3sc(-c4ccc(N5CCCC5)nc4)nc3n2)cn1 [Example 109] | ++ | +/−
Fc1nc(N2CCCC2)ccc1-c1nc2nc(-c3cnc[nH]3)ccc2s1 [Example 95] | ++ | −
Cn1nccc1-c1ccc2sc(-c3ccc(N4CCCC4)nc3F)nc2n1 [Example 97] | + | +/−
c1cncc(-c2ccc3sc(-c4ccc(N5CCCC5)nc4)nc3n2)c1 [Example 89] | ++ | −
Nc1ccc(-c2cc3ccc(-c4ccc(F)nc4)nc3s2)cn1 [Example 105] | +++ | ++
O=C1NCCc2nc(N3CC[C@H](F)C3)sc21 [Example 119] | + | −
Cn1cc(-c2ccc3sc(-c4ccc(N5CCCC5)nc4F)nc3n2)cn1 [Example 86] | ++ | −
N#Cc1ccc2sc(-c3ccc(N4CCCC4)nc3F)nc2n1 [Example 131] | ++ | +++
CNc1ccc(-c2cc3ccc(-c4ccc(F)nc4)nc3s2)cc1F [Example 106] | +++ | +++
